{"source": "patent US20170151295A1", "about": "“USE OF CHI-JU-DI-HUANG-WAN IN TREATING RETINAL ISCHEMIA OR A DISEASE, CONDITION, OR DISORDER ASSOCIATED WITH RETINAL ISCHEMIA” (priority 2015, published 2017)", "assay_type_in_all_cases": "in vivo, Wistar rats", "key": {"MMP-9 [1]": {"system": "MMP-9", "experiment": "Western blotting, retinal MMP-9 after I/R", "conditions": "intravitreal 2 nmole 15 min before ischemia, I/R 24 h"}, "P-p38 MAPK": {"system": "P-p38 MAPK", "experiment": "Western blotting, retinal P-p38 MAPK after I/R", "conditions": "intravitreal 2 nmole 15 min before ischemia, I/R 24 h", "experimental": "Intravitreal injections were performed using a 30-gauge needle attached to a 25 μl syringe after pupil dilation with 1% tropicamide and 2.5% phenylephrine. In certain instances, intravitreal injections of 4 μl of 2 nmole SB203580 (Calbiochem, San Diego, Calif.) or vehicle (an equal volume of DMSO) were performed on ischemic eyes fifteen minutes before pressure-induced retinal ischemia.\nOne day following retinal ischemia with preadministration of relevant compounds or following a sham procedure, the animals were sacrificed. Retinal samples were retrieved and sonicated in a lysis buffer, mammalian protein extraction reagent (Pierce, Ill.)."}, "MMP-9 [2]": {"system": "MMP-9", "experiment": "Gel zymography, retinal MMP-9 activity after I/R", "conditions": "intravitreal 2 nmole 15 min before ischemia, 24 h after ischemia"}}}
{"smiles": "C[S+]([O-])c1ccc(-c2nc(-c3ccncc3)c(-c3ccc(F)cc3)[nH]2)cc1", "note": "(stereo not drawn) [SB203580]", "values": [{"measurement": "MMP-9/β-actin protein ratio (Western blotting)", "setting": "MMP-9 [1]", "value": "0.31 ± 0.10"}, {"measurement": "P-p38/β-actin protein ratio", "setting": "P-p38 MAPK", "value": "0.23 ± 0.05"}, {"measurement": "MMP-9/β-actin (gel zymography, MMP-9 activity)", "setting": "MMP-9 [2]", "value": "1.49 ± 0.21"}]}
